Test in all cases: NCI tumour cell line growth inhibition, 48 h
Assay [1] concerns ACHN renal.
Assay [2] concerns HL-60(TB) leukemia.
Assay [3] has as its system KM12 colon.
The test system of assay [4] is MOLT-4 leukemia.
In assay [5] the test system is NCI/ADR-RES ovarian.
Assay [6] deals with RPMI-8226 leukemia.
Assay [7] has as its system SF-295 CNS.
Assay [8] deals with SK-MEL-28 melanoma.
In assay [9] the test system is SK-MEL-5 melanoma.
Assay [10] relates to U251 CNS.

The text below walks through data of PubChem BioAssay (NCI).

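Each compound was tested at five concentrations against cells in 96-well plates for 48 hours. GI50: concentration for 50% inhibition of growth. The concentration for full growth arrest is given as TGI.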 Some results are limits rather than exact numbers.

For the molecule `COc1ccc2c(c1)/C(=C\c1c(Cl)n(C)c3ccccc13)C(=O)N2`, the GI50 in [1] is 1.6 µM; in assay [2], 0.182 µM; in [3], 9.06 µM; in assay [4], 1.7 µM; in [5], 0.629 µM; in [6] it was 1.76 µM. Further, the GI50 was 0.981 µM in assay [7], 13.5 µM in assay [8], 0.76 µM in assay [9] and 0.817 µM in [10]. In addition, the TGI is 16.2 µM in assay [1]; 2.65 µM in [2]; 26.4 µM in [3]; > 22 µM in [4]; 2.03 µM in assay [5]; > 34.3 µM in [6]. Moreover, the TGI in [7] was 6.66 µM; in [8], > 55.4 µM; in assay [9], 7 µM; in assay [10], 10.5 µM.

For the molecule `C=CC[C@@H]1/C=C(\C)C[C@H](C)C[C@H](OC)[C@H]2O[C@@](O)(C(=O)C(=O)N3CCCC[C@H]3C(=O)O[C@H](/C(C)=C/C3CC[C@@H](O)[C@H](OC)C3)[C@H](C)[C@@H](O)CC1=O)[C@H](C)C[C@@H]2OC` (stereo not given in full), the GI50 in assay [1] is 15.4 µM; in [2], 16.4 µM; in [3] it was 14.9 µM; in [4], 14.4 µM; in assay [5], 15 µM; in assay [6], 8.59 µM. For the same molecule, the GI50 was 14.6 µM in assay [7], 15.2 µM in [8], 13.7 µM in assay [9] and 14.2 µM in assay [10]. The TGI stood at 29.5 µM in assay [1]; 38.4 µM in [2]; 28.7 µM in assay [3]; 41.6 µM in [4]; 35.3 µM in assay [5]; 32.2 µM in assay [6]. Also, the TGI in assay [7] worked out at 31.9 µM; in assay [8], 29.2 µM; in assay [9], 26.6 µM; in assay [10], 27.7 µM.

Turning to `CS(=O)(=O)c1ccc(Oc2cc(F)cc(C#N)c2)c2c1[C@H](O)C(F)(F)C2`, the GI50 in [1], in [2], in [3], in assay [4], in [5] and in assay [6] was > 100 µM each time. Besides, the GI50 in [7], in assay [8], in assay [9] and in [10] was > 100 µM throughout. Moreover, the TGI in assay [1], in [2], in assay [3], in [4], in [5] and in assay [6] was > 100 µM in each case. Moreover, the TGI in assay [7], in assay [8], in assay [9] and in assay [10] was > 100 µM throughout.

As for `CCCCCCCCCCCCCCCCCC(=O)OCC(COC1OC(CS(=O)(=O)O)C(O)C(O)C1O)OC(=O)CCCCCCCCCCCCCCCCC` (stereo not given), the TGI in assay [1], in [2], in assay [3], in assay [4], in assay [5] and in assay [6] was > 100 µM throughout. For the same molecule, the TGI in assay [7], in assay [8], in [9] and in assay [10] was > 100 µM throughout.

For the molecule `N#Cc1cc(N(CCCl)CCCl)c([N+](=O)[O-])cc1[N+](=O)[O-]`, the TGI in assay [1] is > 100 µM; in [2] it was 80.9 µM; in assay [3], > 100 µM; in [4], > 100 µM; in assay [5], > 100 µM; in assay [6] it was > 100 µM. Further, the TGI in assay [7], in [8], in assay [9] and in [10] was > 100 µM in each case.

As to `COc1ccc(OC)c(/C=C2\COc3ccc(O)c(O)c3C2=O)c1`, the GI50 was 1.84 µM in assay [1]; 1.42 µM in assay [2]; 1.73 µM in assay [3]; 1.97 µM in assay [4]; 2.51 µM in [5]; 0.751 µM in assay [6]. For the same molecule, the GI50 was 4.29 µM in [7], 2.65 µM in assay [8], 1.75 µM in assay [9] and 2.21 µM in assay [10]. Further, the TGI in assay [1] was 3.97 µM; in assay [2], 16.1 µM; in assay [3], 3.92 µM; in [4], > 100 µM; in [5], 10.9 µM; in assay [6] it was 6.12 µM. Further, the TGI in assay [7] worked out at 15.5 µM; in assay [8], 7.51 µM; in [9], 3.28 µM; in [10] it was 10.5 µM.

Regarding `N=c1n(Cc2ccccc2)c(N)cc(=O)n1Cc1ccccc1`, the GI50 in assay [1] was 0.747 µM; in assay [2], 2.21 µM; in assay [3] it was 4.75 µM; in [4], 1.24 µM; in assay [5] it was 2.33 µM; in assay [6] it was 3.58 µM. For the same molecule, the GI50 in [7] is 2.68 µM; in assay [8], 3.58 µM; in [9], 1.9 µM; in assay [10], 3.32 µM. The TGI in assay [1] was found to be 5.25 µM; in assay [2], 4.93 µM; in assay [3] it was 29.3 µM; in [4], 5.38 µM; in assay [5], 5.71 µM; in [6], 18.1 µM. Moreover, the TGI in [7] amounted to 19.1 µM; in assay [8], 11.7 µM; in assay [9] it was 3.95 µM; in assay [10] it was 11.7 µM.

On to `COc1ccc(-c2nn(-c3cccc(NC(=O)c4cccc(C(F)(F)F)c4)c3)cc2-c2ccncc2)cc1Cl`, for which the GI50 was 4.4 µM in [1]; 2.96 µM in assay [2]; 1.35 µM in assay [3]; 2.62 µM in assay [4]; 1.75 µM in assay [5]; 2.5 µM in assay [6]. For the same molecule, the GI50 in assay [7] was 2.37 µM; in [8] it was 3.07 µM; in assay [9], 1.06 µM; in assay [10] it was 1.8 µM. Also, the TGI was > 100 µM in assay [1]; 8.64 µM in assay [2]; 9.7 µM in assay [3]; > 100 µM in assay [4]; 14 µM in [5]; 49 µM in [6]. In addition, the TGI in [7] was found to be 9.91 µM; in assay [8] it was 36 µM; in [9] it was 4.4 µM; in assay [10] it was 17.6 µM.
